Consider 31 compounds from US4923975A, “Valiolamine derivatives and production thereof” (Takeda Chemical Industries, Ltd., priority 1985, dated 1990).

Series [1] has as its system α-glucosidase. The note with it: in words; valiolamine and N-substituted valiolamine derivatives (European Patent Publication No. 56194 and 89812); cited from earlier work.
Series [2] relates to sheath blight of the rice plant. As to the kind of experiment: activity against the sheath blight of the rice plant (stated in words). The note with it: VA-G and VM-G.
Series [3] can be described thus: Solubility in solvents. The class given is physicochemical. The note with it: for solubility in water: in words, for isolation and purification.
Series [4] deals with α-glucosidase. As to the kind of experiment: α-glucosidase-inhibiting activity (stated in words). The class given is biochemical. The note with it: VA-G and VM-G.
In series [5] the test system is Rhizoctonia solanii. As to the kind of experiment: minimum concentration causing the abnormal branching at the tops of hypha of Rhizoctonia solanii. The series is classed as cell-based. The note with it: method: J. Antibiotics 24,114-118 (1971). On the procedure:
For example, the minimum concentration causing the abnormal branching at the tops of hypha of Rhizoctonia solanii [See J. Antibiotics 24,114-118 (1971)}was 0.5 μg/mL for VM-G and 2.5 μg/mL for VA-G.

For series [6], the target named is T1, sucrase from porcine small intestine (Sus scrofa, UniProt P56729).
T1 construct: sucrase from porcine small intestine; from tissue; host or cells: porcine small intestine
As to the kind of experiment: inhibition of sucrase from porcine small intestine (substrate 50 mM sucrose). The note with it: read-out: IC50 (molarity required for 50% inhibition of the enzymatic activity) against sucrase. The series is classed as biochemical.

The mark [7] stands for this setting: in ethanol, ethyl acetate, chloroform, and acetone.
Where [8] appears, read: in water, dimethylsulfoxide, and methanol.

For orientation: minimal effective concentration means the smallest amount tested that counted as effective. The low end stands for greater potency, the high end for weaker potency. One may read the IC50 as the concentration needed to halve the response being measured.

T1 sequence (P56729 with tags, fused parts or gaps limits assumed): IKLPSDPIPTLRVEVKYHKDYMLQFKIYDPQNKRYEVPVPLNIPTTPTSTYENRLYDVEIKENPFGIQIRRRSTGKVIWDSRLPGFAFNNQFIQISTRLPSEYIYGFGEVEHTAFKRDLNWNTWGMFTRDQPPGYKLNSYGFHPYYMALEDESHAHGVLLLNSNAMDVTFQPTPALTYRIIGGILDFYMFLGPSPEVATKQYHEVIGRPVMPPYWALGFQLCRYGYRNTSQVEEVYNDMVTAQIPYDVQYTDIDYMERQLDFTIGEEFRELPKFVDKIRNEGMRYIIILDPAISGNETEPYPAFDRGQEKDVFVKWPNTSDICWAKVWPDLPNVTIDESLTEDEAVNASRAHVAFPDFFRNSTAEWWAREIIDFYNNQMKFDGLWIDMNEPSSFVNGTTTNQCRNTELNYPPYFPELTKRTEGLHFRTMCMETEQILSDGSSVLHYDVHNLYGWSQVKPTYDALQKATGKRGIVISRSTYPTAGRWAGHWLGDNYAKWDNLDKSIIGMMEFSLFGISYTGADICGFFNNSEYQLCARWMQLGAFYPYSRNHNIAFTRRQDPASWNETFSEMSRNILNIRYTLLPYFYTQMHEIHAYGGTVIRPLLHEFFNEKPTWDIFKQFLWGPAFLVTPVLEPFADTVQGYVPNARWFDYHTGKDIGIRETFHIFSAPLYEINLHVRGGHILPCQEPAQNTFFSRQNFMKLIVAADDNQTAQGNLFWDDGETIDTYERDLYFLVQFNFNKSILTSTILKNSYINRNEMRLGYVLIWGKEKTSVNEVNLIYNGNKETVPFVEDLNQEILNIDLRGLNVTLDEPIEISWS
T1 sequence (P56729 with tags, fused parts or gaps partner limits assumed): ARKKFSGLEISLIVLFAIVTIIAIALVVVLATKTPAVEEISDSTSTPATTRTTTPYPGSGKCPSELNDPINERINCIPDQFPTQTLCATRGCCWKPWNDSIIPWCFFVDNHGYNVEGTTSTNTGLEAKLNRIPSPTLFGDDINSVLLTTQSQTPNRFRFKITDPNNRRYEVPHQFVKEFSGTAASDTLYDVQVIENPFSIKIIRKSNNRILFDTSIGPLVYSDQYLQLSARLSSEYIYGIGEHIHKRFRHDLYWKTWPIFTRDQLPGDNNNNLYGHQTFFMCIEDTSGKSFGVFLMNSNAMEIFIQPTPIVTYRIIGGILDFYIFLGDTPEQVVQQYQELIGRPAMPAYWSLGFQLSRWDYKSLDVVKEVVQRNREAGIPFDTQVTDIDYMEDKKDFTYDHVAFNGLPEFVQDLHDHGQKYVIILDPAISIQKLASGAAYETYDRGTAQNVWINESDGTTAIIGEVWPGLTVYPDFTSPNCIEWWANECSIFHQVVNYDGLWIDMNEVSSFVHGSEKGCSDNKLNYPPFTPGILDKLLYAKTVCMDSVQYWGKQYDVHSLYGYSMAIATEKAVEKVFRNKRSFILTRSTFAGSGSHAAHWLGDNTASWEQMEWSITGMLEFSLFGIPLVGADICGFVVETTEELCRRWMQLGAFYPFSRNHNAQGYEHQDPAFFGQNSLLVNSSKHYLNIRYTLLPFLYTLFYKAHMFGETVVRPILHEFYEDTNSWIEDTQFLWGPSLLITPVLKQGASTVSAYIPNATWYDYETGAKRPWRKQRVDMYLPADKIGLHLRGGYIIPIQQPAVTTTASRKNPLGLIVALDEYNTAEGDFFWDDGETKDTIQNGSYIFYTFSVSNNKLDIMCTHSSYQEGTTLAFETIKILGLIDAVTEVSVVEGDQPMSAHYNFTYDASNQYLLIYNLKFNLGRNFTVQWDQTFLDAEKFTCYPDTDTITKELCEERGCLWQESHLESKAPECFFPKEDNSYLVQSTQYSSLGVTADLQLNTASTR

Consider `OC[C@@]1(O)C[C@H](NCCc2ccccc2)[C@H](O)[C@@H](O)[C@@H]1O` [(1), N-phenethylvaliolamine], for which, in series [1], the α-glucosidase-inhibitory action result is listed as “potent α-glucosidase-inhibitory action”.

Turning to `OC[C@@]1(O)C[C@H](NCC=Cc2ccccc2)[C@H](O)[C@@H](O)[C@@H]1O` [(2), N-(3-phenylallyl)valiolamine], the α-glucosidase-inhibitory action entry in series [1] is recorded as “potent α-glucosidase-inhibitory action”.

On to `OC[C@@]1(O)C[C@H](NCc2ccco2)[C@H](O)[C@@H](O)[C@@H]1O` [(3), N-furfurylvaliolamine], for which the α-glucosidase-inhibitory action entry in series [1] is “potent α-glucosidase-inhibitory action”.

Take `OC[C@@]1(O)C[C@H](NCc2cccs2)[C@H](O)[C@@H](O)[C@@H]1O` [(4), N-thenylvaliolamine]: the α-glucosidase-inhibitory action result in series [1] was “potent α-glucosidase-inhibitory action”.

Turning to `OC[C@@]1(O)C[C@H](NCc2cccnc2)[C@H](O)[C@@H](O)[C@@H]1O` [(5), N-(3-pyridylmethyl)valiolamine], the α-glucosidase-inhibitory action result in series [1] is “potent α-glucosidase-inhibitory action”.

For the compound `OC[C@@]1(O)C[C@H](NCc2ccc(Br)cc2)[C@H](O)[C@@H](O)[C@@H]1O` [(6), N-(4-bromobenzyl)valiolamine], the α-glucosidase-inhibitory action entry in series [1] is on record as “potent α-glucosidase-inhibitory action”.

In the case of `OC[C@@]1(O)C[C@H](NC[C@H](O)c2ccccc2)[C@H](O)[C@@H](O)[C@@H]1O` [(7), N-[(R)-β-hydroxyphenethyl]valiolamine], the α-glucosidase-inhibitory action result in series [1] is listed as “potent α-glucosidase-inhibitory action”.

For the compound `OC[C@@]1(O)C[C@H](NC[C@@H](O)c2ccccc2)[C@H](O)[C@@H](O)[C@@H]1O` [(8), N-[(S)-β-hydroxyphenethyl]valiolamine], the α-glucosidase-inhibitory action result in series [1] is on record as “potent α-glucosidase-inhibitory action”.

Regarding `COc1ccccc1C(O)CN[C@H]1C[C@](O)(CO)[C@@H](O)[C@H](O)[C@H]1O` (stereo partly drawn) [(9), N-(β-hydroxy-2-methoxyphenethyl)valiolamine], in series [1], the α-glucosidase-inhibitory action entry is “potent α-glucosidase-inhibitory action”.

Consider `CC(C)(C)c1cc(CN[C@H]2C[C@](O)(CO)[C@@H](O)[C@H](O)[C@H]2O)cc(C(C)(C)C)c1O` [(10), N-(3,5-di-tert-butyl-4-hydroxybenzyl)valiolamine], for which the α-glucosidase-inhibitory action result in series [1] is reported as “potent α-glucosidase-inhibitory action”.

For `OC[C@@]1(O)C[C@H](NCC2CCCCC2)[C@H](O)[C@@H](O)[C@@H]1O` [(11), N-(cyclohexylmethyl)valiolamine], the α-glucosidase-inhibitory action result in series [1] is on record as “potent α-glucosidase-inhibitory action”.

`CC(C)=CCC/C(C)=C/CN[C@H]1C[C@](O)(CO)[C@@H](O)[C@H](O)[C@H]1O` [(12), N-geranylvaliolamine]: the α-glucosidase-inhibitory action entry in series [1] is given as “potent α-glucosidase-inhibitory action”.

For `OCC(CO)N[C@H]1C[C@](O)(CO)[C@@H](O)[C@H](O)[C@H]1O` [(13), N-(1,3-dihydroxy-2-propyl)valiolamine], the α-glucosidase-inhibitory action entry in series [1] is on record as “potent α-glucosidase-inhibitory action”.

Consider `OCC(N[C@H]1C[C@](O)(CO)[C@@H](O)[C@H](O)[C@H]1O)C(O)c1ccccc1` (stereo partly shown) [(14), N-(1,3-dihydroxy-1-phenyl-2-propyl)valiolamine], for which the α-glucosidase-inhibitory action result in series [1] is “potent α-glucosidase-inhibitory action”.

On to `OC[C@H](N[C@H]1C[C@](O)(CO)[C@@H](O)[C@H](O)[C@H]1O)c1ccccc1` [(15), N-[(R)-o-(hydroxymethyl)benzyl]valiolamine], for which, in series [1], the α-glucosidase-inhibitory action result is reported as “potent α-glucosidase-inhibitory action”.

Consider `OC[C@@]1(O)C[C@H](NC2CCCCC2)[C@H](O)[C@@H](O)[C@@H]1O` [(16), N-cyclohexylvaliolamine], for which the α-glucosidase-inhibitory action entry in series [1] is “potent α-glucosidase-inhibitory action”.

As for `OC[C@@]1(O)C[C@H](NC2CCCCC2O)[C@H](O)[C@@H](O)[C@@H]1O` (stereo partly shown) [(17), N-(2-hydroxycyclohexyl)valiolamine], the α-glucosidase-inhibitory action entry in series [1] is recorded as “potent α-glucosidase-inhibitory action”.

Take `OC[C@@]1(O)C[C@H](N[C@@H]2CCCC[C@H]2O)[C@H](O)[C@@H](O)[C@@H]1O` [(18), N-[(1R,2R)-2-hydroxycyclohexyl]valiolamine]: the α-glucosidase-inhibitory action entry in series [1] is recorded as “potent α-glucosidase-inhibitory action”.

With `OC[C@@]1(O)C[C@H](NC2CCCC2O)[C@H](O)[C@@H](O)[C@@H]1O` (stereo partly shown) [(19), N-(2-hydroxycyclopentyl)valiolamine], in series [1], the α-glucosidase-inhibitory action result was “potent α-glucosidase-inhibitory action”.

For `CO[C@H]1O[C@H](C)[C@@H](N[C@H]2C[C@](O)(CO)[C@@H](O)[C@H](O)[C@H]2O)[C@H](O)[C@H]1O` [(20), Methyl 4-[(1S,2S)-(2,4,5(OH)/3,5)-2,3,4,5-tetrahydroxy-5-(hydroxymethyl)cyclohexyl]amino-4,6-dideoxy-α-D-glucopyranoside], the α-glucosidase-inhibitory action result in series [1] is listed as “potent α-glucosidase-inhibitory action”.

As for `N[C@H]1C[C@H](CO)[C@@H](N[C@H]2C[C@](O)(CO)[C@@H](O)[C@H](O)[C@H]2O)[C@H](O)[C@H]1O` [(22), [(1S,2S)-(2,4,5(OH)/3,5)-2,3,4,5-tetrahydroxy-5-(hydroxymethyl)cyclohexyl][(1R,2S)-(2,6/3,4)-4-amino-2,3-dihydroxy-6-(hydroxymethyl)cyclohexyl]-amine], the α-glucosidase-inhibitory action result in series [1] is listed as “potent α-glucosidase-inhibitory action”.

In the case of `OC[C@H]1C[C@@H](N[C@H]2C[C@](O)(CO)[C@@H](O)[C@H](O)[C@H]2O)[C@H](O)[C@@H](O)[C@@H]1O` [(23), N-[(1R,2S)-(2,4/3,5)-2,3,4-trihydroxy-5-(hydroxymethyl)cyclohexyl]valiolamine], the α-glucosidase-inhibitory action entry in series [1] is “potent α-glucosidase-inhibitory action”.

Take `C[C@H]1C[C@H](N)[C@H](O)[C@@H](O)[C@@H]1N[C@H]1C[C@](O)(CO)[C@@H](O)[C@H](O)[C@H]1O` [(24), N-[(1R,2S)-(2,6/3,4)-4-amino-2,3-dihydroxy-6-methylcyclohexyl]valiolamine]: the α-glucosidase-inhibitory action result in series [1] was “potent α-glucosidase-inhibitory action”.

For the compound `C[C@H]1C[C@H](O)[C@H](O)[C@@H](O)[C@@H]1N[C@H]1C[C@](O)(CO)[C@@H](O)[C@H](O)[C@H]1O` [(25), N-[(1R,2S)-(2,6/3,4)-2,3,4-trihydroxy-6-methylcyclohexyl]valiolamine], the α-glucosidase-inhibitory action entry in series [1] is on record as “potent α-glucosidase-inhibitory action”.

With `C[C@H]1C[C@@H](O)[C@H](O)[C@@H](O)[C@@H]1N[C@H]1C[C@](O)(CO)[C@@H](O)[C@H](O)[C@H]1O` [(26), N-[(1R,2S)-(2,4,6/3)-2,3,4-trihydroxy-6-methylcyclohexyl]valiolamine], the α-glucosidase-inhibitory action result in series [1] is reported as “potent α-glucosidase-inhibitory action”.

As for `C[C@H]1O[C@H](O[C@H]2[C@H](O)[C@@H](O)C(O)O[C@@H]2CO)[C@H](O)[C@@H](O)[C@@H]1N[C@H]1C[C@](O)(CO)[C@@H](O)[C@H](O)[C@H]1O` (stereo partly drawn) [(27), 4-O-α-[4-[[(1S)-(1,2,4,5(OH)/3,5)-2,3,4,5-tetrahydroxy-5-(hydroxymethyl)cyclohexyl]amino]-4,6-dideoxy-D-glucopyranosyl]-D-glucopyranose], the α-glucosidase-inhibitory action result in series [1] is reported as “potent α-glucosidase-inhibitory action”.

As to `C[C@H]1O[C@H](O[C@H]2[C@H](O)[C@@H](O)[C@@H]3OC[C@H]2O3)[C@H](O)[C@@H](O)[C@@H]1N[C@H]1C[C@](O)(CO)[C@@H](O)[C@H](O)[C@H]1O` [(28)], in series [1], the α-glucosidase-inhibitory action result is recorded as “potent α-glucosidase-inhibitory action”.

`OCC1=C[C@H](N[C@H]2C[C@](O)(CO)[C@@H](O)[C@H](O)[C@H]2O)[C@H](O)[C@@H](O)[C@@H]1O` [VA-G, validoxylamine G]: in series [2], the “activity against the sheath blight of the rice plant” value was “an activity against the sheath blight of the rice plant”. For the same compound, the results for the Solubility in solvents result in series [3] (setting [7]) and in series [3] (setting [8]) were “Slightly soluble or insoluble” and “Soluble”, respectively. Also, in series [3], the solubility in water entry is listed as “water-soluble basic substances”. Also, the α-glucosidase-inhibiting activity entry in series [4] was “α-glucosidase-inhibiting activity”. Besides, the minimal effective concentration in series [5] worked out at 2.5 µg/mL. Besides, the IC50 in series [6] is 8.8 µM.

For the compound `OCC1=C[C@H](N[C@H]2C[C@](O)(CO)[C@@H](O[C@@H]3O[C@H](CO)[C@@H](O)[C@H](O)[C@H]3O)[C@H](O)[C@H]2O)[C@H](O)[C@@H](O)[C@@H]1O` [VM-G, validamycin G], in series [2], the “activity against the sheath blight of the rice plant” value is listed as “an activity against the sheath blight of the rice plant”. For the same compound, the Solubility in solvents result is recorded as “Slightly soluble or insoluble” in series [3] (setting [7]) and “Soluble” in series [3] (setting [8]). Besides, the solubility in water entry in series [3] was “water-soluble basic substances”. Moreover, in series [4], the α-glucosidase-inhibiting activity result is “α-glucosidase-inhibiting activity”. In addition, the minimal effective concentration in series [5] is 0.5 µg/mL. For the same compound, the IC50 in series [6] is 110 µM.

Take `N[C@H]1C[C@](O)(CO)[C@@H](O)[C@H](O)[C@H]1O` [Valiolamine, valiolamine]: in series [1], the α-glucosidase-inhibitory action entry was “potent α-glucosidase-inhibitor”.

Turning to “Methyl 4-[(1S,2S)-(2,4,5(OH)/3,5)-2,3,4,5-deoxy-α-D-glucopyranoside [(21)]”, the α-glucosidase-inhibitory action entry in series [1] was “potent α-glucosidase-inhibitory action”.
